The subject of the assay is polyA (polyadenine) (DNA, polymer) A. In words: differential pulse voltammetry, dAdo oxidation signal decrease. The conditions noted are these: 0.1 M acetate buffer pH 4.7; 10 µg/mL CIN, 20 min; dAdo signal falls to S% 50.

Consider `C[C@@H](NCCCc1cccc(C(F)(F)F)c1)c1cccc2ccccc12`, for which the binding entry is recorded as “yes”.

The record behind these values is paper PMC9138790 (2022).
